Measured values: patent US10028992B2, “Methods of treating muscular dystrophy” (BOARD OF REGENTS OF THE NEVADA SYSTEM OF HIGHER EDUCATION …, priority 2012, dated 2018)
Where two headings read alike, the source gives them in different places.

Tested on: α7 integrin promoter
Test: muscle cell-based assay: α7βgal+/− myoblasts/myotubes, LacZ reporter, β-galactosidase cleavage of FDG
Design: species or system mouse
Outline: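 Fluorescein generated from FDG by β-galactosidase reports α7 integrin promoter activity in differentiated myoblasts from α7+/− LacZ knock-in pups. Screening hits then went to dose-response, western blotting and a myostatin counterscreen.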

SMILES	Results in a α7+/− β-galactosidase assay, Myotubes, 0.5 uM (Myotubes, compound at 0.5 uM)	Results in a α7+/− β-galactosidase assay, Myotubes, 1 uM (Myotubes, compound at 1 uM)	Results in a α7+/− β-galactosidase assay, Myotubes, 5 uM (Myotubes, compound at 5 uM)	Results in a α7+/− β-galactosidase assay, Myotubes, 10 uM (Myotubes, compound at 10 uM)	Results in a α7+/− β-galactosidase assay, Myotubes, 20 uM (Myotubes, compound at 20 uM)	Results in a α7+/− β-galactosidase assay, Myotubes, 40 uM (Myotubes, compound at 40 uM)	Results in a α7+/− β-galactosidase assay, Myotubes, 0.5 uM	Results in a α7+/− β-galactosidase assay, Myotubes, 1 uM	Results in a α7+/− β-galactosidase assay, Myotubes, 5 uM	Results in a α7+/− β-galactosidase assay, Myotubes, 10 uM	Results in a α7+/− β-galactosidase assay, Myotubes, 20 uM	Results in a α7+/− β-galactosidase assay, Myotubes, 40 uM
NC(=O)COc1ccc(C(=O)/C=C2\C(=O)Nc3ccccc32)cc1 [drawing 379]	0.04116	0.06227	0.08579	−0.1303	−0.2553	−0.6822	–	–	–	–	–	–
CC1(C)Cc2ccccc2-c2nc3n(c(=O)c21)CCS3 [drawing 380]	0.09354	0.08602	−0.04079	−0.05719	−0.329	−0.421	–	–	–	–	–	–
CN(/C(=N/S(=O)(=O)c1cccs1)c1ccccc1)c1ccccc1 [drawing 381]	−0.07971	0.1809	0.01531	−0.02849	0.1022	−0.209	–	–	–	–	–	–
CSc1ccc(S(=O)(=O)NCc2ccccc2)cc1 [drawing 382]	−0.1565	−0.2515	0.02007	0.1738	−0.1735	−0.07044	–	–	–	–	–	–
O=C1Nc2ccccc2/C1=C/c1ccccc1F [drawing 383]	−0.06236	−0.04077	−0.1089	0.02646	−0.3381	−0.4226	–	–	–	–	–	–
CN1C(=O)/C(=C(/C#N)c2nc3ccccc3[nH]2)c2ccccc21 [drawing 384]	−0.07617	−0.02413	−0.1571	0.1257	−0.2111	−0.2699	–	–	–	–	–	–
CC1CC(C)(C)N=C(S)N1CC(=O)N(C)Cc1ccccc1 (stereo not drawn) [drawing 385]	0.02464	−0.02121	−0.03109	0.2144	−0.02703	0.0594	–	–	–	–	–	–
Cc1noc(C)c1COc1ccc(C(=O)NCCc2ccccn2)cc1 [drawing 386]	0.08027	0.1153	−0.04323	0.2279	−0.2443	−0.1582	–	–	–	–	–	–
COCCSc1ccccc1C(=O)Nc1cc(C)cc(C)c1 [drawing 387]	−0.1267	0.09331	−0.1086	0.1203	−0.2283	−0.2601	–	–	–	–	–	–
CC(=O)Nc1ccc(NC(=O)c2cc(=O)c3cc(C)cc(C)c3o2)cc1 [drawing 388]	−0.05012	−0.03106	−0.1165	0.3265	−0.3385	−0.2657	–	–	–	–	–	–
COc1ccc(-c2c[nH]nc2-c2ccc(OC)cc2)cc1 [drawing 389]	–	–	–	–	–	–	−0.01143	0.1883	0.3888	0.8585	0.03803	−0.2518
Cc1cccc(Sc2nc(-c3ccccc3)ccc2C#N)c1 [drawing 390]	−0.06701	−0.1813	0.02472	0.2322	−0.3206	−0.2803	–	–	–	–	–	–
CCC(C)NC(=O)CSc1nnc(COc2ccc(Br)cc2)o1 (stereo not drawn) [drawing 391]	−0.04347	−0.169	−0.2461	−0.2857	−0.2196	−0.2848	–	–	–	–	–	–
